The values that follow come from patent US9120749B2, “Quinoline derivatives and MELK inhibitors containing the same” (ONCOTHERAPY SCIENCE, INC., priority 2010, dated 2015).

Structures can show the parent of a compound that is named as a salt. Where two headings read alike, the source gives them in different places.

Broadly, the IC50 is the concentration that inhibits the measured activity by half.

Test [1] deals with MELK (Homo sapiens, UniProt Q14680). Description: Kinase assay: MELK activity, phosphorylation of FITC-labeled histone H3 peptide measured by IMAP fluorescence polarization. Particulars: read-out: IC50 (μM) (kinase assay). Type of test: biochemical. The method in brief:
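Kinase reactions ran with or without test compound (final DMSO 1%) on a fluorescein-tagged H3 peptide. Progressive binding solution was added to terminate them. After a half-hour room-temperature incubation, polarization was measured.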
On the technique in general: Fluorescence polarisation rises when a labelled molecule tumbles more slowly, as on binding a larger partner.

In test [2] the test system is DU4475 cells. Description: Cell-based assay: anti-proliferative activity, Cell Counting Kit-8, 72 hours (DU4475). Particulars: Homo sapiens, DU-4475, 72 h. A general note: Tetrazolium assays rely on reduction of a dye to a coloured formazan, in cell work by metabolically active cells.
For test [3], the system named is HT-1197 cells. Description: Cell-based assay: anti-proliferative activity, Cell Counting Kit-8, 72 hours (HT-1197, negative control without MELK expression). Conditions: 72 hours. The method in brief:
(§1)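 First, lysates underwent western blotting with anti-MELK antibody to establish expression. Next, cells went into 96-well plates. Then candidate inhibitors were added. Finally, viability was determined by CCK-8 at 72 h and IC50 computed.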

The subject of test [4] is A549 cells. Description: Cell-based assay: anti-proliferative activity, Cell Counting Kit-8, 72 hours (A549). Particulars: 72 hours. The method in brief:
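Cell Counting Kit-8 read-out of A549 growth after 72 hours of inhibitor exposure, cells plated in 96-well format. Values reported as IC50.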

For test [5], the system named is T47D cells. Description: Cell-based assay: anti-proliferative activity, Cell Counting Kit-8, 72 hours (T47D). In outline:
as §1

Test [6] has as its system DU4475 cells. Description: Cell-based assay: anti-proliferative activity, Cell Counting Kit-8, 72 hours (DU4475).
Setting [7] is: Homo sapiens, HT1197, 72 h, HT1197 cells (negative control, no MELK expression).
Where [8] appears, read: Homo sapiens, HT1197, 72 h, HT1197 cells (negative control).

Chain of MELK (Q14680 whole entry, looked up): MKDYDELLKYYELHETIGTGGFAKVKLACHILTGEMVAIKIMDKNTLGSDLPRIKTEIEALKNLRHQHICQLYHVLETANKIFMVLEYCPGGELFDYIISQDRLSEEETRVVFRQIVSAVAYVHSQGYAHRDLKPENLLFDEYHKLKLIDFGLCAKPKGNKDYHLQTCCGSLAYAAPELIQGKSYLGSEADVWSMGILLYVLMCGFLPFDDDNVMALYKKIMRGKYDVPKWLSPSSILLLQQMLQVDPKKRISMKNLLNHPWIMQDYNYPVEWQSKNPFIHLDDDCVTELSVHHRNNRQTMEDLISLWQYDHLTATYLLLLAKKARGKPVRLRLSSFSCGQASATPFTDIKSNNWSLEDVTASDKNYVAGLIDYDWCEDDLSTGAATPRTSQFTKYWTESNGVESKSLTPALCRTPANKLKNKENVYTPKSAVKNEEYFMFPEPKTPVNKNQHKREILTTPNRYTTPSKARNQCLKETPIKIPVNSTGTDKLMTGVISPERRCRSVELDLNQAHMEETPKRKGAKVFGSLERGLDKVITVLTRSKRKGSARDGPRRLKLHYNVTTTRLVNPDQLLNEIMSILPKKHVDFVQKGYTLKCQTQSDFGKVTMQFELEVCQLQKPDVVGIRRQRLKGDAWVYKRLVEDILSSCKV

On to `CCC(=O)c1cnc2ccc(-c3cc(Cl)c(O)c(Cl)c3)cc2c1Nc1ccc(N2CCC(N)C2)nc1` (stereo not shown) [Example 761, 1-(4-(6-(3-aminopyrrolidin-1-yl)pyridin-3-ylamino)-6-(3,5-dichloro-4-hydroxyphenyl)quinolin-3-yl)propan-1-one], for which the IC50 in test [1] turned out to be 0.0026 µM; in test [2], 0.022 µM; in test [3] (setting [7]) it was 1.5 µM; in test [4] (Homo sapiens, A549, 72 h) it was 0.053 µM; in test [5] (Homo sapiens, T47D, 72 h), 0.031 µM.

On to `CC(=O)c1cnc2ccc(-c3cc(F)c(O)c(Cl)c3)cc2c1Nc1cccc(CCN(C)C)c1` [Example 759, 1-(6-(3-chloro-5-fluoro-4-hydroxyphenyl)-4-(3-(2-(dimethylamino)ethyl)phenylamino)quinolin-3-yl)ethanone], for which the IC50 in test [1] was determined as 0.013 µM; in test [2], 0.2 µM; in test [3] (setting [7]), 10 µM; in test [4] (Homo sapiens, A549, 72 h), 0.42 µM; in test [5] (Homo sapiens, T47D, 72 h) it was 0.67 µM.

As for `CC(=O)c1cnc2ccc(-c3cc(F)c(O)c(Cl)c3)cc2c1Nc1ccc(NCCN(C)C)nc1` [Example 762, 1-(6-(3-chloro-5-fluoro-4-hydroxyphenyl)-4-(6-(2-(dimethylamino)ethylamino)pyridin-3-ylamino)quinolin-3-yl)ethanone], the IC50 in test [1] was 0.014 µM; in test [2], 0.089 µM; in test [3] (setting [7]), 5.2 µM; in test [4] (Homo sapiens, A549, 72 h), 0.25 µM; in test [5] (Homo sapiens, T47D, 72 h), 0.12 µM.

Take `COc1cc(-c2ccc3ncc(C(C)=O)c(N[C@@H]4CCC[C@@H](CN(C)C)C4)c3c2)cc(Cl)c1O` [Example 752, 1-(6-(3-chloro-4-hydroxy-5-methoxyphenyl)-4-((1R,3R)-3-((dimethylamino)methyl)cyclohexylamino)quinolin-3-yl)ethanone]: the half-maximal inhibitory concentration (IC50) in test [1] was determined as 0.001 µM; in test [2], 0.17 µM; in test [3] (setting [7]), 3.4 µM; in test [4] (Homo sapiens, A549, 72 h), 0.2 µM; in test [5] (Homo sapiens, T47D, 72 h) it was 0.18 µM.

Take `CC(=O)c1cnc2ccc(-c3cc(Cl)c(O)c(Cl)c3)cc2c1N[C@@H]1CCC[C@@H](CN(C)C)C1` [Example 750, 1-(6-(3,5-dichloro-4-hydroxyphenyl)-4-((1R,3R)-3-((dimethylamino)methyl)cyclohexylamino)quinolin-3-yl)ethanone]: the IC50 in test [1] was found to be 0.0023 µM; in test [2], 0.19 µM; in test [3] (setting [7]), 1.7 µM; in test [4] (Homo sapiens, A549, 72 h), 0.39 µM; in test [5] (Homo sapiens, T47D, 72 h), 0.2 µM.

Turning to `CCC(=O)c1cnc2ccc(-c3cc(F)c(O)c(Cl)c3)cc2c1N[C@H]1CC[C@H](N(C)C)CC1` [Example 757, 1-(6-(3-chloro-5-fluoro-4-hydroxyphenyl)-4-((trans-4-(dimethylamino)cyclohexyl)amino)quinolin-3-yl)propan-1-one], the IC50 in test [1] was found to be 0.0062 µM; in test [2] it was 0.069 µM; in test [3] (setting [7]), 0.76 µM; in test [4] (Homo sapiens, A549, 72 h) it was 0.15 µM; in test [5] (Homo sapiens, T47D, 72 h), 0.064 µM.

Consider `O=C(c1cnc2ccc(-c3cc(Cl)c(O)c(Cl)c3)cc2c1N1CCC(CCN2CCCC2)CC1)C1CC1` [Example 756, cyclopropyl(6-(3,5-dichloro-4-hydroxyphenyl)-4-(4-(2-(pyrrolidin-1-yl)ethyl)piperidin-1-yl)quinolin-3-yl)methanone], for which the IC50 in test [2] was 0.27 µM; in test [3] (setting [7]), 10 µM; in test [4] (Homo sapiens, A549, 72 h) it was 0.54 µM; in test [5] (Homo sapiens, T47D, 72 h) it was 0.5 µM.

Regarding `COc1cc(-c2ccc3ncc(C(=O)C4CC4)c(Nc4ccc(N5CCC(N)C5)nc4)c3c2)cc(Cl)c1O` (stereo not shown) [Example 568, (4-(6-(3-aminopyrrolidin-1-yl)pyridin-3-ylamino)-6-(3-chloro-4-hydroxy-5-methoxyphenyl)quinolin-3-yl)(cyclopropyl)methanone], the IC50 was found to be 0.0027 µM in test [1]; 0.62 µM in test [3] (setting [8]); 0.082 µM in test [4] (Homo sapiens, A549, 72 h); 0.045 µM in test [6] (Homo sapiens, DU-4475, 72 h); 0.057 µM in test [5] (Homo sapiens, T47D, 72 h).

`CN[C@H]1CC[C@H](Nc2c(C(=O)C3CC3)cnc3ccc(-c4cc(Cl)c(O)c(Cl)c4)cc23)CC1` [Example 510, Cyclopropyl{6-(3,5-dichloro-4-hydroxyphenyl)-4-[trans-4-(methylamino)cyclohexylamino]quinolin-3-yl}methanone]: the half-inhibitory concentration (IC50) is 0.0019 µM in test [1]; 1 µM in test [3] (setting [8]); 0.12 µM in test [4] (Homo sapiens, A549, 72 h); 0.018 µM in test [6] (Homo sapiens, DU-4475, 72 h); 0.054 µM in test [5] (Homo sapiens, T47D, 72 h).

With `CC(=O)c1cnc2ccc(-c3cc(F)c(O)c(Cl)c3)cc2c1N[C@H]1CC[C@H](N)CC1` [Example 527, 1-(4-((trans-4-aminocyclohexyl)amino)-6-(3-chloro-5-fluoro-4-hydroxyphenyl)quinolin-3-yl)ethanone], the IC50 in test [1] was found to be 0.015 µM; in test [3] (setting [8]) it was 10 µM; in test [4] (Homo sapiens, A549, 72 h), 0.42 µM; in test [6] (Homo sapiens, DU-4475, 72 h), 0.02 µM; in test [5] (Homo sapiens, T47D, 72 h), 0.034 µM.

As for `CCCC(=O)c1cnc2ccc(-c3cc(Cl)c(O)c(OC)c3)cc2c1N[C@H]1CC[C@H](CN(C)C)CC1` [Example 607], the IC50 in test [1] stood at 0.0051 µM; in test [3] (setting [8]), 3.4 µM; in test [4] (Homo sapiens, A549, 72 h), 0.48 µM; in test [6] (Homo sapiens, DU-4475, 72 h), 0.24 µM; in test [5] (Homo sapiens, T47D, 72 h), 0.24 µM.

Regarding `NC1CCN(c2ncc(Nc3c(C(=O)C4CC4)cnc4ccc(-c5cc(Cl)c(O)c(Cl)c5)cc34)cn2)C1` (stereo not shown) [Example 574, (4-(2-(3-aminopyrrolidin-1-yl)pyrimidin-5-ylamino)-6-(3,5-dichloro-4-hydroxyphenyl)quinolin-3-yl)(cyclopropyl)methanone], the concentration for half-maximal inhibition (IC50) in test [1] worked out at 0.0018 µM; in test [3] (setting [8]), 1.4 µM; in test [4] (Homo sapiens, A549, 72 h), 0.087 µM; in test [6] (Homo sapiens, DU-4475, 72 h) it was 0.021 µM; in test [5] (Homo sapiens, T47D, 72 h), 0.031 µM.

For the molecule `NC1CCCN(c2ccc(Nc3c(C(=O)C4CC4)cnc4ccc(-c5cc(F)c(O)c(Cl)c5)cc34)cn2)C1` (stereo not shown) [Example 562, (4-(6-(3-aminopiperidin-1-yl)pyridin-3-ylamino)-6-(3-chloro-5-fluoro-4-hydroxyphenyl)quinolin-3-yl)(cyclopropyl)methanone hydrochloride], the IC50 in test [1] (hydrochloride) was determined as 0.0017 µM; in test [3] (HT1197 cells (negative control), hydrochloride), 0.19 µM; in test [4] (hydrochloride), 0.012 µM; in test [6] (hydrochloride) it was 0.0089 µM; in test [5] (72 hours, hydrochloride) it was 0.0064 µM.

Take `COc1cc(-c2ccc3ncc(C(=O)C4CC4)c(C4=CCNCC4)c3c2)cc(Cl)c1O` [Example 516, (6-(3-chloro-4-hydroxy-5-methoxyphenyl)-4-(1,2,3,6-tetrahydropyridin-4-yl)quinolin-3-yl)(cyclopropyl)methanone]: the IC50 in test [1] is 0.0044 µM; in test [3] (setting [8]), 3 µM; in test [4] (Homo sapiens, A549, 72 h) it was 0.36 µM; in test [6] (Homo sapiens, DU-4475, 72 h), 0.66 µM; in test [5] (Homo sapiens, T47D, 72 h), 0.52 µM.

On to `COc1cc(-c2ccc3ncc(C(=O)C4CC4)c(Nc4ccc(N5CCC(N)CC5)nc4)c3c2)cc(Cl)c1O` [Example 550, (4-(6-(4-aminopiperidin-1-yl)pyridin-3-ylamino)-6-(3-chloro-4-hydroxy-5-methoxyphenyl)quinolin-3-yl)(cyclopropyl)methanone], for which the half-inhibitory concentration (IC50) in test [1] was determined as 0.0057 µM; in test [3] (setting [8]) it was 2.7 µM; in test [4] (Homo sapiens, A549, 72 h) it was 0.58 µM; in test [6] (Homo sapiens, DU-4475, 72 h), 1 µM; in test [5] (Homo sapiens, T47D, 72 h) it was 0.1 µM.

As for `O=C(c1cnc2ccc(-c3cc(Cl)c(O)c(Cl)c3)cc2c1N[C@H]1CC[C@H](CN2CC[C@@H](F)C2)CC1)C1CC1` [Example 571, cyclopropyl(6-(3,5-dichloro-4-hydroxyphenyl)-4-((trans-4-(((R)-3-fluoropyrrolidin)methyl)cyclohexyl)amino)quinolin-3-yl)methanon], the IC50 in test [1] came out at 0.0043 µM; in test [3] (setting [8]) it was 0.39 µM; in test [4] (Homo sapiens, A549, 72 h), 0.16 µM; in test [6] (Homo sapiens, DU-4475, 72 h), 0.08 µM; in test [5] (Homo sapiens, T47D, 72 h), 0.18 µM.

For `COc1cc(-c2ccc3ncc(C(=O)C4CC4)c(N[C@H]4CC[C@@H](CN(C)CC#N)CC4)c3c2)cc(Cl)c1O` [Example 518, 2-((((1R,4R)-4-(6-(3-chloro-4-hydroxy-5-methoxyphenyl)-3-(cyclopropanecarbonyl)quinolin-4-ylamino)cyclohexyl)methyl)(methyl)amino)acetonitrile], the IC50 in test [1] was 0.013 µM; in test [3] (setting [8]), 3.4 µM; in test [4] (Homo sapiens, A549, 72 h), 0.17 µM; in test [6] (Homo sapiens, DU-4475, 72 h), 0.078 µM; in test [5] (Homo sapiens, T47D, 72 h) it was 0.16 µM.

Turning to `CCCC(=O)c1cnc2ccc(-c3cc(Cl)c(O)c(Cl)c3)cc2c1N[C@H]1CC[C@H](N)CC1` [Example 535, 1-(4-((trans-4-aminocyclohexyl)amino)-6-(3,5-dichloro-4-hydroxyphenyl)quinolin-3-yl)butan-1-one], the IC50 in test [1] is 0.0024 µM; in test [3] (setting [8]), 3.3 µM; in test [4] (Homo sapiens, A549, 72 h), 0.24 µM; in test [6] (Homo sapiens, DU-4475, 72 h), 0.025 µM; in test [5] (Homo sapiens, T47D, 72 h), 0.077 µM.

Turning to `NC1CCN(c2ccc(Nc3c(C(=O)C4CC4)cnc4ccc(-c5cc(Cl)c(O)c(Cl)c5)cc34)cn2)CC1` [Example 548, (4-(6-(4-aminopiperidin-1-yl)pyridin-3-ylamino)-6-(3,5-dichloro-4-hydroxyphenyl)quinolin-3-yl)(cyclopropyl)methanone], the IC50 in test [1] was determined as 0.002 µM; in test [3] (setting [8]), 3.4 µM; in test [4] (Homo sapiens, A549, 72 h), 0.45 µM; in test [6] (Homo sapiens, DU-4475, 72 h), 0.099 µM; in test [5] (Homo sapiens, T47D, 72 h), 0.097 µM.
